The text on data set [1]: (§1) A flat sheet microporous polypropylene membrane (Celgard 2400, 38% porosity, 0.05 micron average pore size, 25 micron thick) was wet with polypropylene glycol (PPG) MW 4000 obtained from the Dow Chemical Company by putting a few drops of PPG on the membrane sheet and spreading it out. […] The excess PPG was wiped off and the membrane with immobilized PPG was ready for use. […] The same wetting procedure can be used for hollow fiber membranes. In a module form, the fibers can be wet by pumping PPG slowly through the lumens of the fibers. The excess PPG left in the fibers can thereafter be removed by either blowing air or passing water through the tube side of the fibers.
A flat sheet immobilized liquid membrane prepared according to Example 1 was placed between the two compartments of a cell. Surface area of the membrane was 8 cm^2. One cell compartment contained an aqueous waste solution containing para-nitrophenol (PNP) at a concentration of 4000 to 5000 mg/L and 20 wt % KCl. The other compartment contained 0.1N NaOH as an aqueous strip solution. Both solutions were circulated by pumps. Total volume of liquid on each side of the membrane was 100 ml. The system was at room temperature. PNP levels in both compartments were measured periodically using a spectrophotometric method.

For data set [2] the following is noted: 65° C. (Example 26). As for the experimental part: Celgard 2500 (flat sheet microporous polypropylene membrane) was wetted with PPG-4000 and sandwiched between two compartments of a membrane cell as described in Example 2. One compartment was filled with a aqueous solution containing 5000 mg/L butanol. Air was swept in the other compartment to remove butanol diffusing through the membrane, thus creating driving force for further transport. The system was operated at 65° C.

The nature of data set [3]: Stability/integrity of supported liquid membrane. Type of data set: physicochemical.
Text: as §1
The process of Example 2 was repeated but with octanol, a typical organic solvent with high affinity for p-nitrophenol, as the liquid membrane.

The source holds these as a separate data set.
A short description of data set [4]: Partition coefficient between polyalkylene glycol (PPG) and water. An excerpt:
*Kp = Acid concentration in PPG .div. Acid Concentration in H2 O at […]

A short description of data set [5]: Transport across hollow fiber supported liquid membrane (Examples 5 and 6). Particulars: Celgard X20 400 hollow fibers; after 3 hours (Example 5). It counts as physicochemical. The source says: Celgard X20 400 hollow fibers (40% porosity, 0.065 micron pore size, internal diameter 400 microns, outer diameter 460 microns) were potted into a module containing 54 fibers that were 18 cm long. The total membrane area was 120 cm^2. PPG MW 4000 was pumped through the lumens of the fibers to wet them. Water was then pumped through to remove excess PPG. The module having PPG immobilized in the fiber walls was then used to remove PNP from an aqueous solution containing approximately 4000 to 5000 mg/L PNP and 20 wt % KCl. The aqueous stripping solution was 0.1N NaOH. The set up was similar to that used in Example 2. The initial rate of PNP transport across the hollow fiber membrane was about 4 mg/hr-cm^2 membrane area. After 3 hours of operation PNP concentration in the stripping side went up to 4400 mg/L and that in the feed side dropped to 45 mg/L.
Using a procedure similar to that of Example 5 but using polysulfone hollow fibers (Permea, St. Louis) as the membrane support, selective extraction of PNP from an aqueous waste solution was examined. Ultrafiltration polysulfone hollow fibers (18 cm long, MW cutoff 160,000, OD 1150 microns, ID 870 microns) were potted into a module containing 10 fibers that were 17.6 cm long. The effective membrane area was about 48 cm^2. The initial rate of transport was about 1 mg PNP/hr-cm^2 membrane area.

The conditions of data set [6]: known octanol/water system; cited from earlier work.
Setting [7] is: overnight, feed pH 5.4, 20 wt. % KCl (Example 29).
Where [8] appears, read: PPG MW about 4000 in CELGARD 2400, 20 wt % NaCl.
The mark [9] stands for this setting: PPG in Celgard 2400, strip 0.1N NaOH, room temperature (Table 3).
The mark [10] stands for this setting: 5 wt % acid, 20 wt % KCl, strip 0.1N NaOH, room temperature (Table 1).
Where [11] appears, read: Celgard 2402, overnight (Example 4).
Where [12] appears, read: Celgard 2500, overnight (Example 3).
Where [13] appears, read: 30 wt. % Pluronic L-81 in PPG-4000 (Example 23).

Molecules are shown by their SMILES. Read-outs that look alike come from different tables or passages of the source.

Take `O=C(O)c1ccccc1` [benzoic acid]: in data set [1] (feed pH 5.4 (Example 29)), the “benzoic acid passage through membrane” value is “virtually blocked by the membrane”. Moreover, in data set [1] (overnight, feed pH 2.5 (Example 30)), the “remaining in feed / transported” value was “virtually gone from the feed”. Further, in data set [1] (setting [7]), the “benzoic acid detected in aqueous strip solution” value is listed as < 1 % of feed. The “benzoic acid level in strip solution” value in data set [1] (overnight, from hydrolysis of ethyl benzoate (Example 33)) is “about 420 mg/L”.

On to `CCCCO` [butanol], for which, in data set [2] (PPG-4000 in Celgard 2500, air sweep), the “initial rate of butanol removal” value was “about 7 mg/hr-cm^2”. In addition, the “butanol concentration in the aqueous solution” value in data set [2] (after about 5 hr, initial 5000 mg/L) is recorded as “about 400 mg/L”.

As for `CCOC(=O)c1ccccc1` [ethyl benzoate], the “permeability of ethyl benzoate through the membrane” value in data set [1] (PPG membrane, feed pH 7.1, strip 0.1N NaOH, 23° C. (Example 33)) is given as “about 9×10^-4 cm/sec”. Further, in data set [1] (overnight, initial 500 mg/L (Example 33)), the “ethyl benzoate concentration in the feed side” value was determined as 1 mg/L.

As to `[Cl-].[Na+]` [NaCl], in data set [3] (setting [8]), the “salt passage through liquid membrane” value is listed as “essentially no salt to pass through”.

`CCCCCC(=O)O` [Caproic Acid (C6), Caproic Acid]: the Permeability under setting [9] worked out at 400 ×10⁻⁶ cm/s. For the same molecule, the “Partition Coeff. (Kp)” value in data set [4] was 83. Besides, the “initial rate of caproic acid transport relative to PPG membrane” value in data set [1] (carbamate-functional liquid membrane drawing 12 (Example 2d)) is on record as “about the same as with PPF-4000”. Further, the “caproic acid level in waste solution” value in data set [1] (carbamate-functional liquid membrane drawing 12, after 23 hours, initial 1800 ppm (Example 2d)) is 13 ppm.

`O` [water]: in data set [3] (setting [8]), the “water movement (diffusion) through liquid membrane” value is “very little water movement”.

In turn, `CCC(=O)O` [Propionic Acid (C3), Propionic Acid] displayed a Permeability (not told) of 33 ×10⁻⁶ cm/s. In data set [1] (setting [10]), the “Initial Rate” value stood at 5.4 mg/hr-cm^2.

The molecule `O=CO` [Formic Acid (C1), Formic Acid] gave a Permeability under setting [9] of 5.5 ×10⁻⁶ cm/s. Moreover, the Rate by setting is: (pH 1.6) 1.0; (pH 5) 0.026. The “Partition Coeff. (Kp)” value in data set [4] (acid concentration in PPG ÷ acid concentration in H2O at equilibrium) is 0.45. Besides, the “Initial Rate” value in data set [1] is 1.0 mg/hr-cm^2.

For the molecule `Oc1ccccc1` [Phenol], in data set [4], the “K PPG-4000/Water” value was found to be 150. For the same molecule, in data set [1], the “concentration in the feed” value was “about 5 mg/L” and the “concentration in the stripping solution” value is “about 5050 mg/L”.

As for `CCCC(=O)O` [Butyric Acid (C4), Butyric Acid], the Permeability (not told) was 42 ×10⁻⁶ cm/s.

In the case of `O=[N+]([O-])c1ccc(O)cc1` [PNP, para-nitrophenol], in data set [4], the “K PPG-4000/Water” value is 300. Also, the entries for the “PNP concentration in feed side” value in data set [1] (setting [11]), in data set [1] (setting [12]) and in data set [5] were 10 mg/L, 5 mg/L and 45 mg/L, respectively. The “PNP concentration in stripping side” value in data set [1] (setting [11]) is reported as 4900 mg/L; in data set [1] (setting [12]), 4430 mg/L; in data set [5] it was 4400 mg/L. Also, the “separation factor for PNP over KCl” value in data set [1] (Example 2) is reported as “at least 2000”. Further, the “PNP concentration difference caustic side vs waste side” value in data set [1] (Example 2, overnight) is on record as “over 1000 times”. For the same molecule, the “PNP concentration in caustic side” value in data set [1] (Example 2, overnight) is recorded as “about 3800 mg/L”. In addition, in data set [1] (Example 2, overnight, initial 4000 to 5000 mg/L), the “PNP concentration in waste side” value was “about 3 mg/L”. Besides, the “PNP level in waste solution” value in data set [1] (Igepal CO-210 liquid membrane, after 24 hours, initial 4397 ppm (Example 2f)) was determined as 10 ppm; in data set [1] (carbamate-functional liquid membrane drawing 12, after 5.5 hours, initial 4300 ppm (Example 2c)) it was 25 ppm; in data set [1] (carbamate-functional liquid membrane drawing 12, overnight (Example 2c)), 5 ppm; in data set [1] (castor oil liquid membrane, after 96 hours, initial 4272 ppm (Example 2e)), 4 ppm; in data set [1] (strip 50 wt. % PEG-200, after about 9 hours, initial 4449 ppm (Example 2b)), 192 ppm; in data set [1] (strip PEG-200, after about 8 hours, initial 4700 ppm (Example 2a)), 12 ppm. Also, in data set [1] (strip PEG-200, after two days, initial 4700 ppm (Example 2a)), the “PNP level in waste solution” value is reported as 0.6 ppm. Further, the “ratio of PNP concentration caustic side over waste side” value in data set [1] (PBG MW 2000, overnight (Example 20)) is “about 1300”. The “PNP removal from the feed solution” value in data set [1] (setting [7]) was “about 99%”. Also, in data set [1] (polybutylene glycol MW approximately 5000, overnight (Example 21)), the “PNP ratio (concentration of strip side to feed side)” value was 120.

With `CC(=O)O` [Acetic Acid (C2), Acetic Acid], the “Initial Rate” value in data set [1] (setting [10]) is reported as 1.6 mg/hr-cm^2.

On to `N#C/C=C/C#N` [fumaronitrile], for which the “initial rate of fumaronitrile transport” value in data set [1] is given as “about 0.5 mg/hr-cm^2”.

`CCCCC(=O)O` [Valeric Acid (C5), Valeric Acid] returned a Permeability (not told) of 160 ×10⁻⁶ cm/s. Moreover, the “Partition Coeff. (Kp)” value in data set [4] came out at 24.6.

In the case of `N.N.O=S(=O)(O)O` [ammonium sulfate], the “ammonium sulfate detected in the stripping solution” value in data set [1] is reported as “no ammonium sulfate was detected”.

As to `O=C1C=CC(=O)N1` [maleimide], in data set [1] (setting [13]), the “change of initial rate of maleimide transport vs Example 22” value was “more than doubled” and the “initial rate of maleimide transport” value is recorded as 2.5 mg/hr-cm^2. Besides, the “initial rate of maleimide transport” value in data set [1] (PPG-4000, 7,000 mg/L maleimide, 40 wt. % ammonium sulfate (Example 22)) is recorded as “about 1.2 mg/hr-cm^2”.

`[Cl-].[K+]` [KCl]: in data set [1] (Example 2), the “chloride concentration on waste side” value is listed as “over 100 g/L”. In data set [1] (Example 2, overnight, measure of KCl transport), the “chloride content in caustic strip solution” value came to 0.049 g/L.

On to `CCCCCCCCO` [octanol, reference compound], for which the “time to breakdown of immobilized liquid membrane” value in data set [3] (octanol liquid membrane in operation (Example 25)) is given as “about 10 minutes”.

On to `C=CC(=O)O` [Acrylic Acid], for which the “K PPG-4000/Water” value in data set [4] is listed as 5. Further, in data set [6], the “K Octanol/Water” value was 1.35.

With `Nc1ccc([N+](=O)[O-])cc1` [p-nitroaniline], in data set [1] (feed pH 9, ~500 mg/L, strip 0.1N nitric acid (Example 8)), the “initial rate of PNA transport” value is reported as “about 1.5 mg/hr-cm^2”. In data set [1] (overnight (Example 8)), the “PNA level in the feed” value is 70 mg/L and the “PNA level in the stripping solution” value is 450 mg/L.
